Results from patent EP0889898B1, “MORPHOLINYL ANTHRACYCLINE DERIVATIVES” (PHARMACIA & UPJOHN S.p.A., priority 1996, dated 1998).

System: L1210 leukemia cells
Test: In vitro cytotoxic activity, growth inhibition test (colony growth), 48h treatment
Format: cell-based
Conditions: ratio of IC50 values versus compound 1
Description: 3'-Deamino-3",4'-anhydro-[2"(S)-methoxy-3"(R)-hydroxy-4"-morpholinyl]doxorubicin 2a was tested in vitro on L1210 leukemia cells in comparison with 3'-deamino-3'-[2"(S)-methoxy-4"-morpholinyl]doxorubicin (1). The cytotoxic activity is reported as IC50, the concentration inhibiting 50% of colony growth, calculated on concentration response curves. […]

How did the “fold more potent than compound 1” value turn out when `COc1cccc2c1C(=O)c1c(O)c3c(c(O)c1C2=O)CC(O)(C(=O)CO)CC3OC1CC2C(OC3C(OC)OCCN23)C(C)O1` [Compound 2a, 3'-deamino-3"-4'-anhydro-[2"(S)-methoxy-3"(R)-hydroxy-4"-morpholinyl]doxorubicin] was run?
The value was 2.5x10^3 fold.
